Like-named read-outs stand apart in the source and are kept apart here.

Experiment [1] addresses T1, IDO1 (Homo sapiens, UniProt P14902).
Description: (§1) The NFK GreenScreen™ (NTRC, Netherlands) uses a specific chemical probe that binds to N-Formylkynurenine (NFK), a product of tryptophan catabolism facilitated by IDO or TDO and causes fluorescence at 510 nm when excited at 410 nm. […] The assay is multiplexed with Cell Titer-Glo® (Promega) to determine if compounds are cytotoxic. […] Cells are counted on a Vi-Cell (Beckman Coulter). SW48 cells are diluted to 1×10^6 cells/ml in assay media. A172 cells are diluted to 0.24×10^6 cells/ml in assay media. […] 5 ul of assay media containing 1.2 mM tryptophan are added to the SW48 cells for a final concentration of 200 uM tryptophan in each well. 5 ul of assay media containing 600 uM tryptophan and 600 ng/ml IFNγ are added to the A172 cells for a final concentration of 100 uM tryptophan and 100 ng/ml IFNγ in each well. The final DMSO concentration is 0.5%. Cell plates are placed at room temperature in a closed TC hood with the blower off to allow cells to settle for approximately 30 min. Plates are then moved to an incubator set at 37° C., 5% CO2 for 24 hours. After the 24 hour compound incubation, 8 ul of NFK green reagent is added to each well with a Multidrop™ Combi dispenser (Thermo Scientific). Plates are sealed and incubated at 37° C., 5% CO2 for 5 hours, then read on a PHERAstar® (BMG labtech). Data are analyzed by normalizing to DMSO and high inhibitor controls. After the plates have been read for NFK green, 25 ul of Cell Titer-Glo® (Promega) are added to each well, incubated for 15 minutes at room temperature, and read on the Envision (Perkin Elmer). Cell Titer-Glo data are analyzed by normalizing to the DMSO controls. Four-parameter curve fitting is used and EC50 data are reported.
Experiment [2] deals with T2, TDO2 (Homo sapiens, UniProt P48775). In words: TDO2 cell assay (NFK GreenScreen) in SW48 cells. The conditions noted are these: read-out: TDO2 cell Fluor EC50, NFK GreenScreen fluorescence.
Description: as §1
In experiment [3] the target is T2, TDO2. The experiment can be described thus: cell-based.
Description: as §1
The target of experiment [4] is T1, IDO1. The experiment can be described thus: cell-based.
Description: as §1

T1 sequence (P14902 whole entry): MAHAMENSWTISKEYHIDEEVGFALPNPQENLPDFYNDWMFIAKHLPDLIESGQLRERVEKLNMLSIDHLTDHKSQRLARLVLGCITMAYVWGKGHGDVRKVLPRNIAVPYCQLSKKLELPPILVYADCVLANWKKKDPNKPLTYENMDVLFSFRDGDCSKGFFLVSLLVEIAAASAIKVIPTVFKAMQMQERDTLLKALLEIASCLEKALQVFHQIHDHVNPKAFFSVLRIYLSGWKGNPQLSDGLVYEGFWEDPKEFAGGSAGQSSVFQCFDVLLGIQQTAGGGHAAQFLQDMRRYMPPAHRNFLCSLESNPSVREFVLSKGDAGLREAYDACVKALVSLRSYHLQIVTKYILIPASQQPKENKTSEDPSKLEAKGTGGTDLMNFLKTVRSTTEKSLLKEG
T2 sequence (P48775 whole entry): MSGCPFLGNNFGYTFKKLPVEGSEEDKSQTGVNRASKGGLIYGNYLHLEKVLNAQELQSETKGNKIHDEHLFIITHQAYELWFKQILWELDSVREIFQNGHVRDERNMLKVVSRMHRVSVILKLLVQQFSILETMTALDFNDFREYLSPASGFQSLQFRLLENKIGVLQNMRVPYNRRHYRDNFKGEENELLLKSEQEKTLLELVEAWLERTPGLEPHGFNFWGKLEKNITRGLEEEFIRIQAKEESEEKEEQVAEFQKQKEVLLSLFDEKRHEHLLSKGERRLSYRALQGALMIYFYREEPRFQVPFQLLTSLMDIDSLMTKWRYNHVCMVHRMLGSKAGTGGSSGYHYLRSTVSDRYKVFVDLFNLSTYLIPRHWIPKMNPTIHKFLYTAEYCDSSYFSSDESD

On to `c1ccc2c(c1)-c1cncn1[C@H]2C1CCCCC1` [Example 19b], for which the EC50 – broadly, the midpoint of the concentration-response curve – was determined as 0.416 µM on IDO1 [1] and 0.033 µM at TDO2 [2].
Turning to `Fc1cc(F)cc(C2c3ccccc3-c3cncn32)c1` (centres unmarked) [Example 45, 5-(3,5-difluorophenyl)-5H-imidazo[5,1-a]isoindole], the concentration giving a half-maximal response (EC50) was determined as 0.14 µM at TDO2 [3] and 1.9 µM on IDO1 [4].
Take `c1ccc2c(c1)-c1cncn1C2C1CCc2ccncc2C1` (centres unmarked) [Example 46, 5-(5,6,7,8-tetrahydroisoquinolin-7-yl)-5H-imidazo[5,1-a]isoindole]: the results for the EC50 on TDO2 [3] and at IDO1 [4] were 0.027 µM and 2 µM, respectively.
For `NC(=O)c1cc(F)cc(C2c3ccccc3-c3cncn32)c1` (centres unmarked) [Example 51, 3-fluoro-5-(5H-imidazo[5,1-a]isoindol-5-yl)benzamide], the EC50 amounted to 0.12 µM on TDO2 [3] and 3.1 µM on IDO1 [4].
For `CC(C)CC1c2ccccc2-c2cncn21` (centres unmarked) [Example 53, 5-isobutyl-5H-imidazo[5,1-a]isoindole], in that order: 0.87 µM and 4.4 µM.
For `Cn1ncc2cc(C3c4ccccc4-c4cncn43)ccc21` (centres unmarked) [Example 55b], in that order: 0.78 µM and 8.1 µM.
Turning to `CS(=O)(=O)c1ccc(C2c3ccccc3-c3cncn32)cc1` (centres unmarked) [Example 56, 5-(4-(methylsulfonyl)phenyl)-5H-imidazo[5,1-a]isoindole], the results for the EC50 at TDO2 [3] and at IDO1 [4] were 0.64 µM and 4.6 µM, respectively.
As to `CC(C)(C)OC(=O)N1CCC2(CC1)CC(C1c3ccccc3-c3cncn31)C2` (centres unmarked) [Example 57, tert-butyl 2-(5H-imidazo[5,1-a]isoindol-5-yl)-7-azaspiro[3.5]nonane-7-carboxylate], the 50% effective concentration (EC50) on TDO2 [3] was determined as 1.5 µM; at IDO1 [4], 0.91 µM.
For the compound `CS(=O)(=O)N1CCC2(CC1)CC(C1c3ccccc3-c3cncn31)C2` (centres unmarked) [Example 59, 5-(7-(methylsulfonyl)-7-azaspiro[3.5]nonan-2-yl)-5H-imidazo[5,1-a]isoindole], the EC50 turned out to be 0.24 µM on TDO2 [3] and 1.5 µM on IDO1 [4].
The corresponding values for `NS(=O)(=O)N1CCCC(C2c3ccccc3-c3cncn32)C1` (centres unmarked) [Example 64, 3-(5H-imidazo[5,1-a]isoindol-5-yl)piperidine-1-sulfonamide] are 0.41 µM and 4.4 µM.
For `Fc1cc(C2c3ccccc3-c3cncn32)cc(F)c1F` (centres unmarked) [Example 65, 5-(3,4,5-trifluorophenyl)-5H-imidazo[5,1-a]isoindole], in that order: 0.21 µM and 1.9 µM.
For `NS(=O)(=O)N1CC2(CC(C3c4ccccc4-c4cncn43)C2)C1` (centres unmarked) [Example 66, 6-(5H-imidazo[5,1-a]isoindol-5-yl)-2-azaspiro[3.3]heptane-2-sulfonamide], in that order: 1.1 µM and 20 µM.
For the compound `CC1(C)CC(C2c3ccccc3-c3cncn32)C1` (centres unmarked) [Example 67, 5-(3,3-dimethylcyclobutyl)-5H-imidazo[5,1-a]isoindole], the EC50 came out at 0.21 µM on TDO2 [3] and 0.9 µM on IDO1 [4].
For `CC1(O)CCC(C2c3ccccc3-c3cncn32)CC1` (centres unmarked) [Example 70, 4-(5H-imidazo[5,1-a]isoindol-5-yl)-1-methylcyclohexan-1-ol], in that order: 0.18 µM and 0.86 µM.
`CS(=O)(=O)N1CCCC(C2c3ccccc3-c3cncn32)C1` (centres unmarked) [Example 71, 5-(1-(methylsulfonyl)piperidin-3-yl)-5H-imidazo[5,1-a]isoindole]: the EC50 on TDO2 [3] was found to be 0.56 µM; at IDO1 [4], 14 µM.
As to `CS(=O)(=O)N1CC2CC(C3c4ccccc4-c4cncn43)CC2C1` (centres unmarked) [Example 75a, 5-(2-(methylsulfonyl)octahydrocyclopenta[c]pyrrol-5-yl)-5H-imidazo[5,1-a]isoindole], the EC50 is 2.1 µM on TDO2 [3] and 7.6 µM at IDO1 [4].
As for `CC(C)(C)OC(=O)N1CC2(CCC(C3c4ccccc4-c4cncn43)CC2)C1` (centres unmarked) [Example 76, tert-butyl 7-(5H-imidazo[5,1-a]isoindol-5-yl)-2-azaspiro[3.5]nonane-2-carboxylate], the EC50 at TDO2 [3] was 1.8 µM; on IDO1 [4], 0.14 µM.
For `O=S(=O)(N1CCC1)N1CCC(C2c3ccc(F)cc3-c3cncn32)CC1` (centres unmarked) [Example 88, 5-(1-(azetidin-1-ylsulfonyl)piperidin-4-yl)-8-fluoro-5H-imidazo[5,1-a]isoindole], in that order: 0.9 µM and 5.3 µM.
Consider `O=S(=O)(NC1CC1)N1CCC(C2c3ccc(F)cc3-c3cncn32)CC1` (centres unmarked) [Example 89, N-cyclopropyl-4-(8-fluoro-5H-imidazo[5,1-a]isoindol-5-yl)piperidine-1-sulfonamide], for which the concentration for a half-maximal effect (EC50) is 0.22 µM at TDO2 [3] and 5.9 µM on IDO1 [4].
The corresponding values for `CS(=O)(=O)N1CC2C(C1)C2C1c2ccccc2-c2cncn21` (centres unmarked) [Example 93, 5-(3-(methylsulfonyl)-3-azabicyclo[3.1.0]hexan-6-yl)-5H-imidazo[5,1-a]isoindole] are 0.77 µM and 8.6 µM.
For `O=S1(=O)NCC2CC(C3c4ccccc4-c4cncn43)CCN21` (centres unmarked) [Example 94, 5-(5H-imidazo[5,1-a]isoindol-5-yl)hexahydro-2H-[1,2,5]thiadiazolo[2,3-a]pyridine 1,1-dioxide], in that order: 0.42 µM and 7.1 µM.
For `NS(=O)(=O)N1CC2C(C1)C2C1c2ccccc2-c2cncn21` (centres unmarked) [Example 96, 6-(5H-imidazo[5,1-a]isoindol-5-yl)-3-azabicyclo[3.1.0]hexane-3-sulfonamide], in that order: 0.39 µM and 9 µM.

The values are drawn from patent US11827639B2, “TDO2 and IDO1 inhibitors” (Genentech, Inc., priority 2017, dated 2023).
